Assay results taken from patent EP0423032A2, “Process for the preparation of isoxazolyl and isothiazolyl imidazobenzodiazepines, new derivatives thus obtained, their use as medicaments and compositions containing them” (ROUSSEL-UCLAF, priority 1989, dated 1991).

Test system: récepteurs des benzodiazépines
Assay: In vivo measurement of binding to benzodiazepine receptors, method of Goeders and Kuhar
From the text: La mesure in vivo de la liaison aux récepteurs des benzodiazépines a été effectuée selon la méthode décrite par Goeders N.E. et Kuhar M.J. Life, Sciences (1985) 37, 345. TABLEAU II

Row | Compound | liaison in vivo DE 50 mg/kg IP
1 | Cc1cc(-c2ncn3c2CN(C)C(=O)c2ccccc2-3)on1 [Exemple 7, 5,6-dihydro 5-méthyl 6-oxo 3-(3-méthylisoxazol-5-yl) 4H-imidazo [1,5-a] [1,4]-benzodiazépine] | 0,62 mg/kg
2 | CCc1cc(-c2ncn3c2CN(C)C(=O)c2ccccc2-3)on1 [Exemple 8, 5,6-dihydro 5-méthyl 6-oxo 3-(3-éthylisoxazol-5-yl) 4H-imidazo [1,5-a] [1,4]-benzodiazépine] | > 3,0 mg/kg
3 | CN1Cc2c(-c3cc(C4CC4)no3)ncn2-c2ccccc2C1=O [Exemple 5, 3-(3-cyclopropylisoxazol-5-yl) 5,6-dihydro 5-méthyl 6-oxo-4H-imidazo [1,5-a] [1,4]-benzodiazépine] | 2,0 mg/kg
